Test results reported in ChEMBL document CHEMBL1158270, “Triangulynes A-H and trangulynic acid, new cytotxic polyacetylenes from the marine sponge Pellina triangulata” (1996).
Active and inactive are the calls of the source.

Experiments:
Assay type in all cases: functional
[1] = test system: COLO 205; assay: Cytotoxicity against human COLO205 cells
[2] = test system: RPMI-8226; assay: Cytotoxicity against human RPMI8226 cells
[3] = test system: LOX IMVI; assay: Cytotoxicity against human LOXIMVI cells
[4] = test system: Malme-3M; assay: Cytotoxicity against human MALME-3M cells
[5] = test system: SR; assay: Cytotoxicity against human SR cells
[6] = test system: HCT-15; assay: Cytotoxicity against human HCT15 cells
[7] = test system: K562; assay: Cytotoxicity against human K562 cells
[8] = test system: SW-620; assay: Cytotoxicity against human SW620 cells
[9] = test system: HT-29; assay: Cytotoxicity against human HT29 cells
[10] = test system: KM12; assay: Cytotoxicity against human KM12 cells
[11] = test system: M14; assay: Cytotoxicity against human M14 cells
[12] = test system: HCC 2998; assay: Cytotoxicity against human HCC2998 cells
[13] = test system: MOLT-4; assay: Cytotoxicity against human MOLT4 cells
[14] = test system: CCRF-CEM; assay: Cytotoxicity against human CCRF-CEM cells
[15] = test system: HL-60; assay: Cytotoxicity against human HL60 cells
[16] = test system: HCT-116; assay: Cytotoxicity against human HCT116 cells

Measured: Activity

C#C/C=C\[C@H](O)CCCCCCCCCCC/C=C\CCCCCCCCCCC[C@H](O)C#CC#CC#CCO
active: all assays above

C#CC(O)/C=C/CCCCCCCCC/C=C\C#CCCCCCCCCCC#CC#CC#CCO (configuration not stated)
active: all assays above

C#C[C@H](O)/C=C/CCCCCCCC/C=C\CCCCCCCC[C@H](O)C#CC#CC#CCO
active: all assays above

C#C[C@H](O)/C=C/CCCCCCCCC/C=C\C#CCCCCCCCC[C@H](O)C#CC#CC#CCO
active: all assays above

C#C[C@H](O)/C=C/CCCCCCCCC/C=C\C#CCCCCCC[C@H](O)C#CC#CC#CCO
active: all assays above

C#C[C@H](O)/C=C/CCCCCCCCCC/C=C\CCCCCCCC[C@H](O)C#CC#CC#CCO
active: all assays above

C#C[C@H](O)/C=C/CCCCCCCCCCCC/C=C\CCCCCCCCCCCCCC[C@H](O)C#CC#CC#CCO
active: all assays above
